# Test results reported in the kinase profiling compilation of Christmann-Franck et al. (2016).
# Assays:
# Assay in all cases: KINOMEscan competition binding
# Settings in all cases: compound 10.0 µM
# SIK3 (human) = SIK3 (human) (UniProt Q9Y2K2)
# PRKCI (human) = PRKCI (human) (UniProt P41743)
# HIPK4 (human) = HIPK4 (human) (UniProt Q8NE63)
# RPS6KA5 KD1 (human) = RPS6KA5 KD1 (human) (UniProt O75582)
# RET (human) = RET (human) (UniProt P07949)
# CDK17 (human) = CDK17 (human) (UniProt Q00537)
# CDK4 CCND1 (human) = CDK4 CCND1 (human) (UniProt P11802+P24385)
# AAK1 (human) = AAK1 (human) (UniProt Q2M2I8)
# RPS6KA2 KD1 (human) = RPS6KA2 KD1 (human) (UniProt Q15349)
# PRKG1 (human) = PRKG1 (human) (UniProt Q13976)
# PLK1 (human) = PLK1 (human) (UniProt P53350)
# [1] = test system: RET (human), P07949 [M918T]
# CDKL2 (human) = CDKL2 (human) (UniProt Q92772)
# STK33 (human) = STK33 (human) (UniProt Q9BYT3)
# PRKD1 (human) = PRKD1 (human) (UniProt Q15139)
# NEK6 (human) = NEK6 (human) (UniProt Q9HC98)
# MAST1 (human) = MAST1 (human) (UniProt Q9Y2H9)
# LYN (human) = LYN (human) (UniProt P07948)
# SYK (human) = SYK (human) (UniProt P43405)
# CDK18 (human) = CDK18 (human) (UniProt Q07002)
# CDK11B (human) = CDK11B (human) (UniProt P21127)
# INSR (human) = INSR (human) (UniProt P06213)
# CDK8 (human) = CDK8 (human) (UniProt P49336)
# MAPK6 (human) = MAPK6 (human) (UniProt Q16659)
# STK39 (human) = STK39 (human) (UniProt Q9UEW8)
# NEK3 (human) = NEK3 (human) (UniProt P51956)
# MAPK9 (human) = MAPK9 (human) (UniProt P45984)
# MAP2K2 (human) = MAP2K2 (human) (UniProt P36507)
# PAK7 (human) = PAK7 (human) (UniProt Q9P286)
# TSSK1B (human) = TSSK1B (human) (UniProt Q9BXA7)
# EPHA3 (human) = EPHA3 (human) (UniProt P29320)
# SRC (human) = SRC (human) (UniProt P12931)
# [2] = test system: EGFR (human), P00533 [752-759 del]
# MAPK1 (human) = MAPK1 (human) (UniProt P28482)
# NUAK2 (human) = NUAK2 (human) (UniProt Q9H093)
# ERBB4 (human) = ERBB4 (human) (UniProt Q15303)
# [3] = test system: EGFR (human), P00533 [747-751 del / S ins]
# DCLK1 (human) = DCLK1 (human) (UniProt O15075)
# ERBB2 (human) = ERBB2 (human) (UniProt P04626)
# ADCK3 (human) = ADCK3 (human) (UniProt Q8NI60)
# TSSK1B (human), sequence (Q9BXA7 whole entry, looked up): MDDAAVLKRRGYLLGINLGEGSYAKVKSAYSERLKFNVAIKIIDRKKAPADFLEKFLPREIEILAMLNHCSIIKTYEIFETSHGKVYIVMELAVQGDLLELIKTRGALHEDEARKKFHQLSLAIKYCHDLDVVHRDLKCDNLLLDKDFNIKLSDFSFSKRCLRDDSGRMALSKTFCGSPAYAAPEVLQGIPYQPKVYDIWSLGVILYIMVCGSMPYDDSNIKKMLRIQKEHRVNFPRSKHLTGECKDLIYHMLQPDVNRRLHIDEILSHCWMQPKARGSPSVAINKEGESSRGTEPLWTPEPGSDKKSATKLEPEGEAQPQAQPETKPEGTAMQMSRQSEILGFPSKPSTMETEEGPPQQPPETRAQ
# MAPK6 (human), sequence (Q16659 whole entry, looked up): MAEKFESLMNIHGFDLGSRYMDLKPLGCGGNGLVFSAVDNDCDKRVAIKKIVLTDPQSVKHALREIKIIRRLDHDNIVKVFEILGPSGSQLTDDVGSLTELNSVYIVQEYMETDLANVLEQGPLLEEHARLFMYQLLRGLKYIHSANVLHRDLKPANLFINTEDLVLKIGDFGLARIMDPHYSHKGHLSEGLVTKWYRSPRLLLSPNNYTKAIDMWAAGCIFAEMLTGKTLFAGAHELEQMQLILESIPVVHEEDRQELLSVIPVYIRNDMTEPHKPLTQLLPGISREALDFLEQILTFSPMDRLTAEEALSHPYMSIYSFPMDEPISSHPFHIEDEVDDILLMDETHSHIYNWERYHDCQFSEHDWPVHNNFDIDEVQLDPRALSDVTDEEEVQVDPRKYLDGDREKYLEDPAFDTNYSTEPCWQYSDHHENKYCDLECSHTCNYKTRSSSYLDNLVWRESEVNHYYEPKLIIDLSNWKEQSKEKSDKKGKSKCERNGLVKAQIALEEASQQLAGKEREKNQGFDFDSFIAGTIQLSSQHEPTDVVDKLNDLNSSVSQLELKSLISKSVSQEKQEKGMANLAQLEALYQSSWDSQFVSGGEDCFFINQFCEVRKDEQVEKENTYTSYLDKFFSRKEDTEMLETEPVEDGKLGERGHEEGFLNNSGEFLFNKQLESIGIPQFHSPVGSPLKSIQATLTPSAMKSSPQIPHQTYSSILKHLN
# AAK1 (human), sequence (Q2M2I8 whole entry, looked up): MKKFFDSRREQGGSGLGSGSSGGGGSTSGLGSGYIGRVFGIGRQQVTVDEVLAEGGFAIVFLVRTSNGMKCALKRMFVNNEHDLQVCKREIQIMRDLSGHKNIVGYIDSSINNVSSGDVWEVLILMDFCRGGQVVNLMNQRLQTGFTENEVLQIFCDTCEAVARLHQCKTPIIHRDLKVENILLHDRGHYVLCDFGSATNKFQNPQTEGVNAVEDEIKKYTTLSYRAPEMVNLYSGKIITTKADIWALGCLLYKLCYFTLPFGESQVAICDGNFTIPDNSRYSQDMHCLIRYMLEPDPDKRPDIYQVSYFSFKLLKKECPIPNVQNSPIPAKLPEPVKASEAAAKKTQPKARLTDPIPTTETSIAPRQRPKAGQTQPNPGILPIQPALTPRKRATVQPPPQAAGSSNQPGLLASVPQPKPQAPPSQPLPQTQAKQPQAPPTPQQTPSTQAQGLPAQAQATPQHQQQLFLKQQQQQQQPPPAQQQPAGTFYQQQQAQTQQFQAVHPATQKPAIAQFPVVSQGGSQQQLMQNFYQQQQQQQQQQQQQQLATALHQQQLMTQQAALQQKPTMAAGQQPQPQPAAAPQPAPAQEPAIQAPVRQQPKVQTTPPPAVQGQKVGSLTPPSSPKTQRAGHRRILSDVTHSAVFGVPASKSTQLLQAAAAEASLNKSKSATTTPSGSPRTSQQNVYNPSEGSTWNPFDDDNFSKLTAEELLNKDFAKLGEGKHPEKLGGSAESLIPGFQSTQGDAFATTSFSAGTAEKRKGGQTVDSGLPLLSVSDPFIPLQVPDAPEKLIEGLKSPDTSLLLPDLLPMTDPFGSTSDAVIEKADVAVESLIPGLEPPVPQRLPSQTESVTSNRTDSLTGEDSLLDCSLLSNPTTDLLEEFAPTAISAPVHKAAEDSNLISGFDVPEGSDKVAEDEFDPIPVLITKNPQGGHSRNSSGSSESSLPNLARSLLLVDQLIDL
# RPS6KA5 KD1 (human), sequence (O75582 whole entry, looked up): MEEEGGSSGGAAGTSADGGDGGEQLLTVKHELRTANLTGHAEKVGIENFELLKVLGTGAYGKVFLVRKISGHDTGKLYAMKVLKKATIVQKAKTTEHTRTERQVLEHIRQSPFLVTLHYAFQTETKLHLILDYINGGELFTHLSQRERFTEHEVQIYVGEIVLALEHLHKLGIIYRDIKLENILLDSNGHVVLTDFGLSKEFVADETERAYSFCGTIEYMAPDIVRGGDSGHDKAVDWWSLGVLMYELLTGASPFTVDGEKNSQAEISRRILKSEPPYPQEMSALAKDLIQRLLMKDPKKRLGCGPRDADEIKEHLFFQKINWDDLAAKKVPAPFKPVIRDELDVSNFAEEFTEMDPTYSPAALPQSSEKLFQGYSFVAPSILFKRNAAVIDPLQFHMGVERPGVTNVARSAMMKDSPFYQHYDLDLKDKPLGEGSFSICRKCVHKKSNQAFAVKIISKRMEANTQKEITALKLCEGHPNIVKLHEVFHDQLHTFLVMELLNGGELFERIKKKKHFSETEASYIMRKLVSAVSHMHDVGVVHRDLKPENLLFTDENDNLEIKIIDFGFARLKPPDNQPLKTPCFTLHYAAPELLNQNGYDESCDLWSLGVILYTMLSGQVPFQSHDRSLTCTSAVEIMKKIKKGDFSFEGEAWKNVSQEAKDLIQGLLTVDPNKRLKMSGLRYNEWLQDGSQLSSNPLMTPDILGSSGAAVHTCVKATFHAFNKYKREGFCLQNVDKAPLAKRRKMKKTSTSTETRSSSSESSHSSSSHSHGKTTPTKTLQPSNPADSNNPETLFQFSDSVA
# MAPK9 (human), sequence (P45984 whole entry, looked up): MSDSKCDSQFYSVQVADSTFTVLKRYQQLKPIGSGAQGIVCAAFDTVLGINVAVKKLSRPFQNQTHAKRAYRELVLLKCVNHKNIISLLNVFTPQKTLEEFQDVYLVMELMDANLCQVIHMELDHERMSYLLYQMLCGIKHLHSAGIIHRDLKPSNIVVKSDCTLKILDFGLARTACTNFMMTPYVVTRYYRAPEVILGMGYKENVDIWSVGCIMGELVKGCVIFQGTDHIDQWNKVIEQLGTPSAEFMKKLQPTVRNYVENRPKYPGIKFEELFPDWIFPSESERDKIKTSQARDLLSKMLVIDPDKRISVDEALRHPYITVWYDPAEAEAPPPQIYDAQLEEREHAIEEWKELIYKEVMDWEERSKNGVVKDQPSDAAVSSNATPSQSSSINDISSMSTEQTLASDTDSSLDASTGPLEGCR
# HIPK4 (human), sequence (Q8NE63 whole entry, looked up): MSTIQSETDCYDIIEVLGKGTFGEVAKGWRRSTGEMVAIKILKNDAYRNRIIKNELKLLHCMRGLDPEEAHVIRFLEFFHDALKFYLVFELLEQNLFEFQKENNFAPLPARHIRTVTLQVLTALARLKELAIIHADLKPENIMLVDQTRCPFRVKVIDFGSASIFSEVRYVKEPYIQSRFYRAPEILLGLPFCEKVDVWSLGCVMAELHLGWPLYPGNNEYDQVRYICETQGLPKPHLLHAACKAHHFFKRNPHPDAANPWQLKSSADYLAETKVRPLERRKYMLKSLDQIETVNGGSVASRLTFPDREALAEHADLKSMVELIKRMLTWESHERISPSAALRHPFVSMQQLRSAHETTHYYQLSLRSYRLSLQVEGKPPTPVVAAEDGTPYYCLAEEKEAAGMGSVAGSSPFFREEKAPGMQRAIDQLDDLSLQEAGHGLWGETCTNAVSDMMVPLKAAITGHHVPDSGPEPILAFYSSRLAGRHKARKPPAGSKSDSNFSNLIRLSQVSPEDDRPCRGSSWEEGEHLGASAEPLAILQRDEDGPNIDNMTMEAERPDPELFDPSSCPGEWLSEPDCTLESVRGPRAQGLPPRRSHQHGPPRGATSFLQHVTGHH
# CDK8 (human), sequence (P49336 whole entry, looked up): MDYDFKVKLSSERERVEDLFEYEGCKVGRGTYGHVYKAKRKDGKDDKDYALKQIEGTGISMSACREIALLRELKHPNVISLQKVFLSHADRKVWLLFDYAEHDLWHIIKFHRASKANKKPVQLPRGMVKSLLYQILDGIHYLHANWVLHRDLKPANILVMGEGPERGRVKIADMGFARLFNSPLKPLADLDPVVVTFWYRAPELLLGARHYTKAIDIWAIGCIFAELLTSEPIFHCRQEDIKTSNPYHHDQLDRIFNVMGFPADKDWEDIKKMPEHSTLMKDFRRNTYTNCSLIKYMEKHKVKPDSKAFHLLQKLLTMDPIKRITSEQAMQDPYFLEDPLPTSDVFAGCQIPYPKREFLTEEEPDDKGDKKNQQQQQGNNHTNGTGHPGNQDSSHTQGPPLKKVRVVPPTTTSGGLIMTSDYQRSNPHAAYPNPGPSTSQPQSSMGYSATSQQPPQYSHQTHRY
# PRKCI (human), sequence (P41743 whole entry, looked up): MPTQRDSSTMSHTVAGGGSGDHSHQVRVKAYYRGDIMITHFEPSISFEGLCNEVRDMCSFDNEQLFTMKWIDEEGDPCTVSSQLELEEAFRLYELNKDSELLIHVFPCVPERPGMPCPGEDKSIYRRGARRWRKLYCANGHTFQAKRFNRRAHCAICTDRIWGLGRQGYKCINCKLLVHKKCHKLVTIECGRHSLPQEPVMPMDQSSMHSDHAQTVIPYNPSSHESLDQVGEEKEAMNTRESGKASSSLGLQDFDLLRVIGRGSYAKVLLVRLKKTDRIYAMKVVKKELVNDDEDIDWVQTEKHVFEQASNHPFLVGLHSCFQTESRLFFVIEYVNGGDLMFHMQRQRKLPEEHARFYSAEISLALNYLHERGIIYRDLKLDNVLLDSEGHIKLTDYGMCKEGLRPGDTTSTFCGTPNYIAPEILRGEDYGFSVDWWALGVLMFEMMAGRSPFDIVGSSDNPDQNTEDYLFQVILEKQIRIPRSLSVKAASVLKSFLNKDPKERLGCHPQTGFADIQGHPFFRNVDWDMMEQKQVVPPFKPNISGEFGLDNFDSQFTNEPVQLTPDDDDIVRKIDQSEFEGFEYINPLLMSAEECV
Structure (SMILES),"kinase still bound, per cent of control (SIK3 (human)) [%]","kinase still bound, per cent of control (PRKCI (human)) [%]","kinase still bound, per cent of control (HIPK4 (human)) [%]","kinase still bound, per cent of control (RPS6KA5 KD1 (human)) [%]","kinase still bound, per cent of control (RET (human)) [%]","kinase still bound, per cent of control (CDK17 (human)) [%]","kinase still bound, per cent of control (CDK4 CCND1 (human)) [%]","kinase still bound, per cent of control (AAK1 (human)) [%]","kinase still bound, per cent of control (RPS6KA2 KD1 (human)) [%]","kinase still bound, per cent of control (PRKG1 (human)) [%]","kinase still bound, per cent of control (PLK1 (human)) [%]","kinase still bound, per cent of control [1] [%]","kinase still bound, per cent of control (CDKL2 (human)) [%]","kinase still bound, per cent of control (STK33 (human)) [%]","kinase still bound, per cent of control (PRKD1 (human)) [%]","kinase still bound, per cent of control (NEK6 (human)) [%]","kinase still bound, per cent of control (MAST1 (human)) [%]","kinase still bound, per cent of control (LYN (human)) [%]","kinase still bound, per cent of control (SYK (human)) [%]","kinase still bound, per cent of control (CDK18 (human)) [%]",further results
COc1cc2ncnc(-n3nc(-c4ccccn4)nc3N)c2cc1OC,83,55,6,84,20,59,47,6.9,76,100,22,14,2,6.4,88,0.15,73,48,24,62,"kinase still bound, per cent of control (CDK11B (human)): 93%; kinase still bound, per cent of control (INSR (human)): 91%; kinase still bound, per cent of control (CDK8 (human)): 100%; kinase still bound, per cent of control (MAPK6 (human)): 85%; kinase still bound, per cent of control (STK39 (human)): 80%; kinase still bound, per cent of control (NEK3 (human)): 87%; kinase still bound, per cent of control (MAPK9 (human)): 1.5%; kinase still bound, per cent of control (MAP2K2 (human)): 74%; kinase still bound, per cent of control (PAK7 (human)): 63%; kinase still bound, per cent of control (TSSK1B (human)): 60%; kinase still bound, per cent of control (EPHA3 (human)): 11%; kinase still bound, per cent of control (SRC (human)): 6.7%; kinase still bound, per cent of control [2]: 58%; kinase still bound, per cent of control (MAPK1 (human)): 56%; kinase still bound, per cent of control (NUAK2 (human)): 37%; kinase still bound, per cent of control (ERBB4 (human)): 59%; kinase still bound, per cent of control [3]: 77%; kinase still bound, per cent of control (DCLK1 (human)): 36%; kinase still bound, per cent of control (ERBB2 (human)): 93%; kinase still bound, per cent of control (ADCK3 (human)): 10%"
NC(=O)Nc1cc(-c2cccc(F)c2)sc1C(=O)N[C@@H]1CCCNC1,6.2,11,38,49,0,84,75,1.3,5,0.8,33,0,60,0,0.3,89,4.1,0.65,0.05,100,"kinase still bound, per cent of control (CDK11B (human)): 100%; kinase still bound, per cent of control (INSR (human)): 27%; kinase still bound, per cent of control (CDK8 (human)): 71%; kinase still bound, per cent of control (MAPK6 (human)): 54%; kinase still bound, per cent of control (STK39 (human)): 4.4%; kinase still bound, per cent of control (NEK3 (human)): 43%; kinase still bound, per cent of control (MAPK9 (human)): 38%; kinase still bound, per cent of control (MAP2K2 (human)): 0%; kinase still bound, per cent of control (PAK7 (human)): 0%; kinase still bound, per cent of control (TSSK1B (human)): 2.6%; kinase still bound, per cent of control (EPHA3 (human)): 0.2%; kinase still bound, per cent of control (SRC (human)): 0.05%; kinase still bound, per cent of control [2]: 2.4%; kinase still bound, per cent of control (MAPK1 (human)): 65%; kinase still bound, per cent of control (NUAK2 (human)): 2.2%; kinase still bound, per cent of control (ERBB4 (human)): 4.4%; kinase still bound, per cent of control [3]: 2.4%; kinase still bound, per cent of control (DCLK1 (human)): 2.4%; kinase still bound, per cent of control (ERBB2 (human)): 0%; kinase still bound, per cent of control (ADCK3 (human)): 93%"
